Experimental data from patent publication US8609358B2, “Methods, peptides and biosensors useful for detecting a broad spectrum of bacteria” (priority 2003, dated 2013).
Primed or numbered codes have the meaning given here. Dabcyl′ = FRET label; Edans = FRET label

Assays:
proteases of Serratia = experiment: Surface sensor sensitivity: cleavage of CPI2 by bacterial proteases; type: biochemical, Serratia marcescens; conditions: for sensor signal: end of sensor study (40 hours)
Protocol: (§1) CPI2 was determined to be a good candidate for a broad-spectrum sensor. Surface sensors were constructed as follows:
(§2) Membrane used: Pall SB6407
(§3) The sensors were air dried and stored overnight at −20° C. Sensors were loaded into sterile 96 well plates for the sensitivity study.
(§4) The bacteria E. faecalis, P. aeruginosa, S. aureus, S. pyogenes, and S. marcescens were grown in an incubator overnight at 37° C. in 5 ml BHI (Brain Heart Infusion) media and diluted to the concentrations given for each experiment. Each strain of bacteria was diluted with PBS (pH 7.4) to obtain an optical density (OD) of approximately 0.52 at 550 nm. This OD was assumed to represent approximately 10^8 cells/ml of bacteria. The 10^8 cells/ml stock of each bacteria was diluted with PBS to obtain a concentration series of: 10^7, 10^6, 10^5 and 10^4 cells/ml. Sensitivity testing consisted of placing 100 μL of each of the concentration series of 10^7, 10^6, 10^5 and 10^4 cells/ml (cells) onto a row of sensors. Controls for each sensitivity testing consisted of sensors exposed to 100 μL PBS.
Data was taken at 4, 24 and 48 hours for each plate. Data consisted of color (fluorescent) images of each plate taken under relatively uniform conditions (lighting, exposure time, etc.) using a Kodak DC290 digital camera. Images were analyzed using NIH ImageJ, a public domain image processing and analysis program developed at the National Institutes of Health (NIH). Analysis consisted of measuring the intensity value within each well (i.e., the sum of the intensity values of all the pixels in the selection divided by the number of pixels). Pixels range in value from 0 to 1. […] All sensor sensitivity data is plotted on an index scale from 0 to 1 versus time and the trends accurately reflect what is seen in the images.

proteases of Pseudomonas = experiment: as above; type: biochemical, Pseudomonas aeruginosa
Protocol: as §1, §2, §3, §4
(§5) Data was taken at 4, 24 and 48 hours for each plate. […] Images were analyzed using NIH ImageJ, a public domain image processing and analysis program developed at the National Institutes of Health (NIH). […]

[1] = system: bacterial culture (media and cells); experiment: Broad spectrum FRET assay, overnight bacterial culture; type: biochemical; conditions: pH 7.2, 150 mM NaCl, 37° C.
Protocol: (§6) A culture of each of the following bacterial species was grown overnight (O/N) in Brain Heart Infusion (BHI) broth at 37° C. with vigorous shaking (˜200 rpm), using methods that are standard in the art: Staphylococcus aureus; Streptococcus pyogenes; Serratia marcescens; Escherichia coli; Pseudomonas aeruginosa (PA14); Pseudomonas aeruginosa (GSU3); and Enterococcus faecalis. After overnight growth, a 1 ml sample of each culture was obtained, and the cells were removed from the culture supernatant by centrifugation at 12,000×g for 5 minutes. The remaining culture supernatants were stored on ice until required (less than one hour). The bacteria were assayed for the presence or absence of enzymes as described below.
Two peptide substrates, CPI1 and CPI2, were designed to encompass all of the cleavage sites of the RSL sequence, as shown in FIGS. 1A and 1B. The peptide substrates were labeled with the fluorescent probe edans (5-((2-aminoethyl)amino)naphthalene-1-sulfonic acid) and the quencher dye molecule dabcyl ((4-(4-(dimethylamino)phenyl)azo)benzoic acid).
The bacteria were grown in an incubator overnight at 37° C. in 5 mL BHI (Brain Heart Infusion) media. Each of the resulting cultures was split into two samples. […] The reaction was followed on a fluorimetric plate reader using an excitation wavelength of 355 nm and an emission wavelength of 485 nm. […]

[2] = system: proteases of Enterococcus; experiment: Surface sensor sensitivity: cleavage of CPI2 by bacterial proteases; type: biochemical, Enterococcus faecalis
Protocol: as §1, §2, §3, §4, §5

[3] = system: proteases of Streptococcus; experiment: as above; type: biochemical, Streptococcus pyogenes
Protocol: as §1, §2, §3, §4, §5

[4] = system: proteases of Staphylococcus; experiment: as above; type: biochemical, Staphylococcus aureus
Protocol: as §1, §2, §3, §4, §5

[5] = system: five different clinical strains of E. faecalis; experiment: Inter-strain operability; type: biochemical, Enterococcus faecalis; conditions: all five clinical strains
Source text: A CIP2 fluorescent resonance entergy transfer (FRET) peptide was exposed to five different clinical strains of E. faecalis (obtained from the University of Colorado). […] FIG. 12 illustrates a graph of the relative fluorescence measured after exposure to the various strains.

[6] = system: E. coli cells or supernatant; experiment: Cleavage of CPI2 incubated with E. coli; type: biochemical, Escherichia coli
Protocol: as §6
The bacteria were grown in an incubator overnight at 37° C. in 5 mL BHI (Brain Heart Infusion) media. Each of the resulting cultures was split into two samples. One was used as a culture, and the other was spun down by centrifugation and the supernatant was collected. The assays were run in 20 mM tris buffer (pH 7.2) with 150 mM NaCl added […]. The cleavage reaction was carried out with 7 μL of culture or supernatant and 3 μL of peptide substrate (5 mg/mL in water/DMSO) in 100 μL total volume at 37° C. The reaction was followed on a fluorimetric plate reader using an excitation wavelength of 355 nm and an emission wavelength of 485 nm.

[7] = Cleavage of CPI2 in uninfected wound fluid; type: biochemical; conditions: in the presence of uninfected wound fluid
[8] = 10^5 bacteria/ml, end of sensor study (40 hours)

## Edans-EGAMFLEAIPMSIPK-Dabcyl (Edans-EGAMFLEAIPMSIPK-{Dabcyl′}) [CPI2]
Proteases of Serratia; 10^4 bacteria/ml
  sensor signal: not observed to give a signal that can be significantly measured above the background
Proteases of Serratia; 10^5 bacteria/ml
  sensor signal: strong signal
Proteases of Serratia; proteases of Serratia
  cleavage of peptide substrate: efficiently cleaved
Proteases of Pseudomonas; [8]
  sensor signal: strong signal
Proteases of Pseudomonas; proteases of Pseudomonas
  cleavage of peptide substrate: efficiently cleaved
[1]
  protease activity (relative fluorescence): protease activity was observed for a number of the bacteria
[2]; [8]
  sensor signal: strong signal
[2]; proteases of Enterococcus
  cleavage of peptide substrate: efficiently cleaved
[3]; [8]
  sensor signal: strong signal
[3]; proteases of Streptococcus
  cleavage of peptide substrate: efficiently cleaved
[4]; [8]
  sensor signal: strong signal
[4]; proteases of Staphylococcus
  cleavage of peptide substrate: efficiently cleaved
[5]
  reaction with strains (relative fluorescence): reacted strongly
[6]; 10^5 bacteria/ml
  sensor signal: not
[6]; incubated with E. coli cells or supernatant
  cleavage of peptide substrate: not cleaved
[7]
  cleavage of peptide substrate: not cleaved

## Edans-EAAGAMFLEAIPK-Dabcyl (Edans-EAAGAMFLEAIPK-{Dabcyl′}) [CPI1]
[1]
  protease activity (relative fluorescence): protease activity was observed for a number of the bacteria
